According to ChEMBL document CHEMBL5465560, “Selectivity Literature for EUbOPEN Chemogenomic Library” (2024):

Assays:
[1] = target: T1, Serine/threonine-protein kinase RIO1 (Homo sapiens) (UniProt Q9BRS2); experiment: Selectivity interaction (Kinase panel (DSF assay)) EUB0001559a RIOK1
T1 sequence (whole entry): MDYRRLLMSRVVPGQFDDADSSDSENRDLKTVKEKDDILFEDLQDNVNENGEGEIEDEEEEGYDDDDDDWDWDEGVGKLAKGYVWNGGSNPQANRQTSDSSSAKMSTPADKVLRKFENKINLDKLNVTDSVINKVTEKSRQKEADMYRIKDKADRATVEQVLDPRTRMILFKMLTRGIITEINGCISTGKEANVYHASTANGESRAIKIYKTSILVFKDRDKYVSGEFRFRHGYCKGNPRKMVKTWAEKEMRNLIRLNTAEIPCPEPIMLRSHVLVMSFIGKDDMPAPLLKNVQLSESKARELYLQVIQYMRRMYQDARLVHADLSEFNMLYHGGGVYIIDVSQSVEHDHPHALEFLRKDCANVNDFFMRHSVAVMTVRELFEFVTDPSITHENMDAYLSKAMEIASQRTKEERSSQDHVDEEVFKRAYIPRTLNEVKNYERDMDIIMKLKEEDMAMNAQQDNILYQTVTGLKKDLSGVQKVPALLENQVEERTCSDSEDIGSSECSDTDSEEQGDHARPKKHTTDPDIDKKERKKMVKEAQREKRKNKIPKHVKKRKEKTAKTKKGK

[2] = target: T2, Tyrosine-protein kinase ITK/TSK (Homo sapiens) (UniProt Q08881); experiment: Selectivity interaction (KinomeScan (DiscoverX)) EUB0000695a ITK; details: at 100 nM
T2 sequence (whole entry): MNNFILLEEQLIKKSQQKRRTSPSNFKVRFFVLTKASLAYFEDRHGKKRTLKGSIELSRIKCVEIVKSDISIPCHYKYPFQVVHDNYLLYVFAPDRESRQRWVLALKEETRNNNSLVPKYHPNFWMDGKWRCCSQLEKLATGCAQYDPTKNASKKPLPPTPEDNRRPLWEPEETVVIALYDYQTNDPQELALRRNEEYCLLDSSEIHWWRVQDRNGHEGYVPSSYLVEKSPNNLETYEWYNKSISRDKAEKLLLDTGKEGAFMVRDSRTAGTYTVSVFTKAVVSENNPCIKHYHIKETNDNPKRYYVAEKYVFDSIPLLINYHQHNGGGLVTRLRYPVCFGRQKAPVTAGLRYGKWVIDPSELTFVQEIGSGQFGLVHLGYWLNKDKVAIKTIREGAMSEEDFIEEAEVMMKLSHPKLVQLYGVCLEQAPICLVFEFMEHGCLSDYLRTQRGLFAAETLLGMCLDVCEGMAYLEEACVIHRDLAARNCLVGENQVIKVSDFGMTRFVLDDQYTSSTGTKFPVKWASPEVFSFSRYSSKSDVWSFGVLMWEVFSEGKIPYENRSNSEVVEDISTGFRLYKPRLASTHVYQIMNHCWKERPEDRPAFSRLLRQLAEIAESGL

[3] = Selectivity interaction (KinomeScan (DiscoverX)) EUB0000695a CDK2H; details: at 100 nM
[4] = target: Myosin light chain kinase 2, skeletal/cardiac muscle (Homo sapiens) (UniProt Q9H1R3); experiment: Selectivity interaction (Kinase panel (Z-LYTE Assay)) EUB0001632a MYLK2; details: at 10 µM
Sequence of Myosin light chain kinase 2, skeletal/cardiac muscle (Homo sapiens) (Q9H1R3 whole entry): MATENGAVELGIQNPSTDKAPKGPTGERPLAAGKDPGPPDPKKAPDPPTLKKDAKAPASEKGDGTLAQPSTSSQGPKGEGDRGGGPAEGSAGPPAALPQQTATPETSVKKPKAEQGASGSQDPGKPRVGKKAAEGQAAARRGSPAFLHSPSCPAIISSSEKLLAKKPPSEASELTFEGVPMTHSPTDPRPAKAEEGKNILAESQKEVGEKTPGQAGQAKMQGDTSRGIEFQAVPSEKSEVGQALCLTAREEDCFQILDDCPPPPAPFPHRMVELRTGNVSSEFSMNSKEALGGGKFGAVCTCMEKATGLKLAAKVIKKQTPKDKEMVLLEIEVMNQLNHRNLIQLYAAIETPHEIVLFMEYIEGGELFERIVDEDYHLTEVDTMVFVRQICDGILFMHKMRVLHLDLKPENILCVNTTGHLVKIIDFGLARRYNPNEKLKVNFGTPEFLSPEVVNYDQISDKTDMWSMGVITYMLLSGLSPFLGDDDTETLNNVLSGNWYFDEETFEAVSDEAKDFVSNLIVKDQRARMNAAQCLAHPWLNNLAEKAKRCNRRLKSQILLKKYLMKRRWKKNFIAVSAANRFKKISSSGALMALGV

[5] = target: Angiopoietin-1 receptor (Homo sapiens) (UniProt Q02763); details: at 10 µM
Sequence of Angiopoietin-1 receptor (Homo sapiens) (Q02763 whole entry): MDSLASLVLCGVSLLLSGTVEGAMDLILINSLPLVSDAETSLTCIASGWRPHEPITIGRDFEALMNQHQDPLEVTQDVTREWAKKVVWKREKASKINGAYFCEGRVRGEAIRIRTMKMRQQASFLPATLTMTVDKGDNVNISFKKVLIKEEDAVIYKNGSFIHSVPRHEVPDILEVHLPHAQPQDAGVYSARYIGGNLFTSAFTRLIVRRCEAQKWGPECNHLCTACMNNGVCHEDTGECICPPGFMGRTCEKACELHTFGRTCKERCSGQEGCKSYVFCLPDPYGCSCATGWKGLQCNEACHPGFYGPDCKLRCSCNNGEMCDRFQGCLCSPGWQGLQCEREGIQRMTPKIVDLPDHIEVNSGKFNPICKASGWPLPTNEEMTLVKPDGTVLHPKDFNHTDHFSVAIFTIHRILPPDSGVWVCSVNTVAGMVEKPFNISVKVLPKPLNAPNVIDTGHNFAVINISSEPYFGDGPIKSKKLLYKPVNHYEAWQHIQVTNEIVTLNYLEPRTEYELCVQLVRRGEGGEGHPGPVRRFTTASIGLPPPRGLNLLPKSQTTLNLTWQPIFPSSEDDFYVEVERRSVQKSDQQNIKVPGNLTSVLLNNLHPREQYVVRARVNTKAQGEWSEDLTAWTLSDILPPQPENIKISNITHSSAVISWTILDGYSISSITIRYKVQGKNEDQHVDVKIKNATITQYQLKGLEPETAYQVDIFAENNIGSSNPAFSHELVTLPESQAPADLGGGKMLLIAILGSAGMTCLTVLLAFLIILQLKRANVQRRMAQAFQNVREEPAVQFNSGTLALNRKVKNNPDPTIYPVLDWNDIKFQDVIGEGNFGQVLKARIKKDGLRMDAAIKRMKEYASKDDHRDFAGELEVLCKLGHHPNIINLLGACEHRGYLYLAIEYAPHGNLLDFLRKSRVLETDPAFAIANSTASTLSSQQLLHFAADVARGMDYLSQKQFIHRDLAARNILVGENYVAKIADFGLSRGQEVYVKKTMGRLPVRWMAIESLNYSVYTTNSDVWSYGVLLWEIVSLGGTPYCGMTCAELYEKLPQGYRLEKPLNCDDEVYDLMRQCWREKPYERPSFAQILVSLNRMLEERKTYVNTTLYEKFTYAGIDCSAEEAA

[6] = target: B1 bradykinin receptor (Homo sapiens) (UniProt P46663); experiment: Selectivity interaction (Eurofins CEREP Diversity Profile (receptors and ion channels)) EUB0000279b BDKRB1; details: at 10 µM
Sequence of B1 bradykinin receptor (Homo sapiens) (P46663 whole entry): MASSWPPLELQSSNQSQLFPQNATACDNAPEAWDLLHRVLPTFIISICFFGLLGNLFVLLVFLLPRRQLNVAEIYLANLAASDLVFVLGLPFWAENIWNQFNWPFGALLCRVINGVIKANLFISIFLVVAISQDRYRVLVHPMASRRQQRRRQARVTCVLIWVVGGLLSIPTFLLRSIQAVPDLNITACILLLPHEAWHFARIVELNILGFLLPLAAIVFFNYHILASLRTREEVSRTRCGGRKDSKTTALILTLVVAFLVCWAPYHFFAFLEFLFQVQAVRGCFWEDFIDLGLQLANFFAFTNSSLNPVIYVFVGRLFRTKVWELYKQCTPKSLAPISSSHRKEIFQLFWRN

[7] = target: T3, Serine/threonine-protein kinase STK11 (Homo sapiens) (UniProt Q15831); experiment: Selectivity interaction (KinomeScan (DiscoverX)) EUB0001049a STK11; details: at 1 µM
T3 sequence (whole entry): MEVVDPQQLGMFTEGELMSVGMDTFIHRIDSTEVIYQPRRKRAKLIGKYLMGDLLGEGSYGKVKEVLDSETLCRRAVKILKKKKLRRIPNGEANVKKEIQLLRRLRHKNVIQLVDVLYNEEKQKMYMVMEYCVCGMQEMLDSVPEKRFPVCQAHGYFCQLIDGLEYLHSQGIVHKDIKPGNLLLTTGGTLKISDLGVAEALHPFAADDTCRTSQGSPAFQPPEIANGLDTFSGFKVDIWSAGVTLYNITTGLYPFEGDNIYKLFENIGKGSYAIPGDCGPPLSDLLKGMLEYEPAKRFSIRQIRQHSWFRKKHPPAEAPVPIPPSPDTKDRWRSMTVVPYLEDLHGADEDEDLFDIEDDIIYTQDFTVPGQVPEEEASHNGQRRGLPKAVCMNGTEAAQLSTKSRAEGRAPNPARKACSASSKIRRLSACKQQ

[8] = target: Tyrosine-protein kinase Lck (Homo sapiens, UniProt P06239); experiment: Selectivity interaction (Millipore kinase profiler) EUB0000124b LCK; details: at 10 µM
Sequence of Tyrosine-protein kinase Lck (P06239 2-509 limits assumed): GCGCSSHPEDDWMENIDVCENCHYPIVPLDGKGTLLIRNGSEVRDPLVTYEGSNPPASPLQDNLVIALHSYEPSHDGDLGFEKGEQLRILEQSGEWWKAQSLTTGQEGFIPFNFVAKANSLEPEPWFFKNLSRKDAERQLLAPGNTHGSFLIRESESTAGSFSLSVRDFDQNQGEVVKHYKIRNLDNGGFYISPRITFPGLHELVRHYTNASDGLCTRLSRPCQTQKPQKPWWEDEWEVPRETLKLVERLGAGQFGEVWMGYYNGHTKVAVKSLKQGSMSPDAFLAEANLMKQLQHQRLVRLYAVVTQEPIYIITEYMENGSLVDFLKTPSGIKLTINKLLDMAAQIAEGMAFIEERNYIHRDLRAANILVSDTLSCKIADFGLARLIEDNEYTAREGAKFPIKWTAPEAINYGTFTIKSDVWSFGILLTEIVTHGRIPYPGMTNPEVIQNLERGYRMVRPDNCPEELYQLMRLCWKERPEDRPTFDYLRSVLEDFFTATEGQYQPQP

[9] = target: Phosphatidylinositol 4,5-bisphosphate 3-kinase catalytic subunit beta isoform (Homo sapiens) (UniProt P42338); experiment: Selectivity interaction (KinomeScan (DiscoverX)) EUB0000618a PIK3CB; details: at 10 µM
Sequence of Phosphatidylinositol 4,5-bisphosphate 3-kinase catalytic subunit beta isoform (Homo sapiens) (P42338 whole entry, looked up, canonical isoform): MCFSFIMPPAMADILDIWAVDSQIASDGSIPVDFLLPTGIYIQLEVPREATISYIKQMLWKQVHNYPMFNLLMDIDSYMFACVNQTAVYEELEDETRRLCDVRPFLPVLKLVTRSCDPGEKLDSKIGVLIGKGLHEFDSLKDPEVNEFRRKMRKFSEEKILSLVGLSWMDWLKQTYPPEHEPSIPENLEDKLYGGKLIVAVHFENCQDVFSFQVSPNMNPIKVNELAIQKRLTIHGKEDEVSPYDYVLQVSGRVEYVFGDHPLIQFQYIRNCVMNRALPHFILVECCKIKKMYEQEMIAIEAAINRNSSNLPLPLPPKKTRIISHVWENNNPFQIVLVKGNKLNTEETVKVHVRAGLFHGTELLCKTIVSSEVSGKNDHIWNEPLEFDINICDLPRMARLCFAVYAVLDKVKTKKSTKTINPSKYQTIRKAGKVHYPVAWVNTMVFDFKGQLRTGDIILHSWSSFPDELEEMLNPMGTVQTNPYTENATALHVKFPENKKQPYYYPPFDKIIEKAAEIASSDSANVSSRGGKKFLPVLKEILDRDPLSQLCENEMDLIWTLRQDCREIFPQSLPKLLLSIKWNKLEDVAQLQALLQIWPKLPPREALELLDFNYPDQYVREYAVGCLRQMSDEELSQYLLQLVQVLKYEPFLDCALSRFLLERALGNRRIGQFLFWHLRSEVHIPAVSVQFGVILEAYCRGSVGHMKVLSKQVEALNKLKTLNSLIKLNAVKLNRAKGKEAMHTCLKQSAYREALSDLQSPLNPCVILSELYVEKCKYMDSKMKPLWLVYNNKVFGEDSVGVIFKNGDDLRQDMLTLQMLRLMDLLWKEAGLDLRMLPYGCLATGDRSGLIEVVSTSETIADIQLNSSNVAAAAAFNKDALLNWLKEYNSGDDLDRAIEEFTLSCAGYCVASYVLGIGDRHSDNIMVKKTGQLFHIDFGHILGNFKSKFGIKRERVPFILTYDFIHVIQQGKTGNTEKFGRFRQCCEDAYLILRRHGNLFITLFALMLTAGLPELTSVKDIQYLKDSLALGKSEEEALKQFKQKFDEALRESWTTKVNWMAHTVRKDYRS

[10] = target: Cyclin-dependent kinase 14 (Homo sapiens) (UniProt O94921); experiment: Selectivity interaction (ActivX KiNativ screen (kinase selectivity in THP-1 cell lysates)) EUB0000639a CDK14; type: subcellular; details: lysate, at 0.04 µM
Sequence of Cyclin-dependent kinase 14 (Homo sapiens) (O94921 whole entry): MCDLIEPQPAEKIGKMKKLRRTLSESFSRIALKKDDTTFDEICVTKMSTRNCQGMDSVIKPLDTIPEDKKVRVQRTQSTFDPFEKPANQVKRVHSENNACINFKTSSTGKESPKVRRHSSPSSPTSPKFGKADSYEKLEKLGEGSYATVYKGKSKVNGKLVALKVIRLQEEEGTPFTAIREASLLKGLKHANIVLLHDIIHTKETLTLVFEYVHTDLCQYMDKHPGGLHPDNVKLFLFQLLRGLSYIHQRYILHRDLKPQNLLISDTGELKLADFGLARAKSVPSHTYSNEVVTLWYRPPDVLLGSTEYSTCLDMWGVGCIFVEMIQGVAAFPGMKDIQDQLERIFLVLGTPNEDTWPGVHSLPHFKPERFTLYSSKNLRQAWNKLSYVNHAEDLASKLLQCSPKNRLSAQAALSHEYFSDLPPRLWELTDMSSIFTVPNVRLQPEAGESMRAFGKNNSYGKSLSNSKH

[11] = target: T4, Mitogen-activated protein kinase kinase kinase 2 (Homo sapiens) (UniProt Q9Y2U5); experiment: Selectivity interaction (Ambit KINOMEscan and KiNATiv profiling in Jurkat cells) EUB0000090b MAP3K2; type: cell-based; details: at 1 µM
T4 sequence (whole entry): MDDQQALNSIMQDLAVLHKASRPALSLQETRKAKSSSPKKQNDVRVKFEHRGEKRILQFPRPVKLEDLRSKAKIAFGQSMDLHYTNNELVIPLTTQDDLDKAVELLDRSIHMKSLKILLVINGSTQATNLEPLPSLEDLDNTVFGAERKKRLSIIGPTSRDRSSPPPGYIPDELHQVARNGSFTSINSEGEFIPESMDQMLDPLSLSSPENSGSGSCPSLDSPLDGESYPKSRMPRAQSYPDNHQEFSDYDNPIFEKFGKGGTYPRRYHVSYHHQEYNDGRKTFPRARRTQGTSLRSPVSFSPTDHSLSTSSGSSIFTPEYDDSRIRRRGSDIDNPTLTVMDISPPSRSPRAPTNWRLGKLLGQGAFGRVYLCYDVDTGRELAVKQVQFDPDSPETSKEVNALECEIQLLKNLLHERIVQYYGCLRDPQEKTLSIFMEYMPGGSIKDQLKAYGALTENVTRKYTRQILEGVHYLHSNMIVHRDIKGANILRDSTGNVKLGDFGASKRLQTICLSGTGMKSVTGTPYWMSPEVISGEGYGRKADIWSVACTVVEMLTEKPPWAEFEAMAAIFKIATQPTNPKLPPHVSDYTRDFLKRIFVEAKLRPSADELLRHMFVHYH

CN(C(=O)c1cnn2cccnc12)c1cc2c(cc1N1CCOCC1)C(=O)N(C[C@@H](F)C(C)(C)O)C2
dTM [1]: -0.2 K

Cc1cc(F)c(C(=O)Nc2cccc(-c3nncn3C(C)C)n2)cc1-n1cnc(C2CC2)c1
% of control [2]: 100%
% of control [3]: 92%

Cn1cc(-n2cnc3c(NCc4nc5cc(Cl)c(Cl)cc5[nH]4)nc(N4CCOCC4)nc32)cn1
% of control [4]: 3.79%

Cc1cc([C@@H](C)Nc2ccccc2C(=O)O)c2nc(N3CCOCC3)cc(=O)n2c1 [AZD-6482]
% of control [5]: 100%

CC(=O)c1cc(-c2ccccc2OCC2CC2)c2ncccn12
% of control [6]: 95%

COc1cc(Nc2nc(C)cc(-c3cnn4nc(OC)ccc34)n2)cc(C(F)(F)F)c1
% of control [7]: 100%

CC(=O)Nc1cccc(-n2c(=O)n(C3CC3)c(=O)c3c(Nc4ccc(I)cc4F)n(C)c(=O)c(C)c32)c1
% of control [8]: 110%

O[C@H]1CC[C@H](Nc2ncc3nc(Nc4c(F)cc(F)cc4F)n([C@H]4CCOC4)c3n2)CC1
% of control [9]: 100%

CC[C@@H]1[C@H](F)C(=O)N[C@@H]1COc1nccc2cc(C(N)=O)c(OC)cc12 [ZIMLOVISERTIB]
% of inhibition [10]: 5.5%

CN(C)C/C=C/C(=O)Nc1ccc(C(=O)N2CCCC(Nc3ncc(Cl)c(-c4c[nH]c5ccccc45)n3)C2)cc1 (stereo unspecified)
% of control [11]: 99%
